One test has as its target mouse GPR17 (mGPR17) (Mus musculus, UniProt Q6NS65). Nature of the test: label-free DMR and second messenger assays, HEK293 cells. It counts as cell-based. The conditions noted are these: agonist.
The next test deals with rat GPR17 (rGPR17) (Rattus norvegicus, UniProt Q09QM4). The test is described as above. It counts as cell-based. To be noted: agonist.
rat GPR17 (rGPR17), sequence (Q09QM4 whole entry): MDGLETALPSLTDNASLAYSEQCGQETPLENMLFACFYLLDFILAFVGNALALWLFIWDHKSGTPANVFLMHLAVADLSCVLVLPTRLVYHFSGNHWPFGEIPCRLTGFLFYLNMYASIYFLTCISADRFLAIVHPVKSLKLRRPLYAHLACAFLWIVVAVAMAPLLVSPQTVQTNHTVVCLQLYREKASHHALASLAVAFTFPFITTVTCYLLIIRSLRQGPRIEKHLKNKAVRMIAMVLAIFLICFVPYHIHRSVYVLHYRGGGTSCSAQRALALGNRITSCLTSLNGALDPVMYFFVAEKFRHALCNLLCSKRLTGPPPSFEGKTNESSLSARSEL

mouse GPR17 (mGPR17), sequence (Q6NS65 whole entry): as the sequence (Q09QM4 whole entry) above, with D2N, T6A, A15S, S270A counted along it

Regarding `O=C(O)CCc1c(C(=O)O)[nH]c2cc(Cl)cc(Cl)c12` [compound 2, 2-carboxy-4,6-dichloro-1H-indole-3-propionic acid], the EC50 entry was “concentration-dependent activation of rGPR17 and mGPR17 was observed” at mouse GPR17 (mGPR17); “concentration-dependent activation of rGPR17 and mGPR17 was observed” on rat GPR17 (rGPR17).

The values above are taken from PMC4114018 (Science signaling, 2013).
